The values below come from ChEMBL document CHEMBL1150463, “Identification of simpler analogs of neurotensin(913) which retain antinociceptive activity” (Bioorg Med Chem Lett, 1993).

Experiment [1] in a line: In vitro affinity for the neurotensin receptor on mouse brain membranes. It counts as tissue-based.
In the next experiment the test system is Mus musculus. Nature of the experiment: Antinociceptive activity using the mouse phenylquinone writhing assay with i.c.v. administration. It counts as functional.

Where a SMILES comes first, the peptide text is derived from it. [ ]: non-standard residue; d: D form. The star is where a group is joined. Orn = NCCC[C@H](N)C(=O)O; Nva = CCC[C@H](N)C(=O)O; Ahx = NCCCCCC(=O)O; X1 = CC(C)CCO* Where only a bound is given, the exact number is not on record here.

Turning to `CC[C@@H](C)[C@H](NC(=O)[C@H](Cc1ccc(O)cc1)NC(=O)[C@@H]1CCCN1C(=O)[C@H](CCCNC(=N)N)NC(=O)[C@@H](N)CCCNC(=N)N)C(=O)N[C@@H](CC(C)C)C(=O)O`, the affinity in experiment [1] corresponds to a Ki of 4 nM. `CC[C@H](C)[C@H](NC(=O)[C@H](Cc1ccc(O)cc1)NC(=O)[C@@H]1CCCN1C(=O)[C@H](CCCNC(=N)N)NC(=O)[C@@H](N)CCCNC(=N)N)C(=O)N[C@@H](CC(C)C)C(=O)O`: the ED50 with Mus musculus turned out to be 0.092 ug mouse-1. As to `CC[C@H](C)[C@H](NC(=O)[C@H](Cc1ccc(O)cc1)NC(=O)[C@@H]1CCCN1C(=O)[C@@H](N)CCCN=C(N)N)C(=O)N[C@@H](CC(C)C)C(=O)O`, in the experiment with Mus musculus, the ED50 was 0.0201 ug mouse-1. Also, the Ki – broadly, a dissociation constant, usually derived from enzyme kinetics or from competition with a known ligand – in experiment [1] was 73 nM. On the same counts, the results for `CC[C@@H](C)[C@H](NC(=O)[C@H](Cc1ccc(O)cc1)NC(=O)[C@@H]1CCCN1)C(=O)O` are greater than 50 ug mouse-1 and greater than 1000 nM. For the compound `CC[C@H](C)[C@H](NC(=O)[C@@H](N)Cc1ccc(O)cc1)C(=O)N[C@@H](CC(C)C)C(=O)O`, the ED50 with Mus musculus was greater than 50 ug mouse-1. The compound further came in with an inhibition constant Ki in experiment [1] greater than 10000 nM.

`NC(N)=NCCC[C@H](NC(=O)[C@@H](N)CCCN=C(N)N)C(=O)O` (H-Arg-Arg-OH) yielded an ED50 with Mus musculus greater than 50 ug mouse-1. In addition, the inhibitory constant (Ki) in experiment [1] is greater than 100000 nM. On to `NC(N)=NCCC[C@H](NC(=O)[C@@H](N)CCCN=C(N)N)C(=O)N1CCC[C@H]1C(=O)O` (H-Arg-Arg-Pro-OH), for which the ED50 entry in the experiment with Mus musculus is on record as “>=500 ug mouse-1”. Compound `NC(N)=NCCC[C@H](N)C(=O)N1CCC[C@H]1C(=O)O` (H-Arg-Pro-OH) displayed an ED50 in the experiment with Mus musculus greater than 50 ug mouse-1. In experiment [1], this compound had a Ki greater than 10000 nM. `NC(N)=NCCC[C@H](N)C(=O)N1CCC[C@H]1C(=O)N[C@@H](Cc1ccc(O)cc1)C(=O)O` (H-Arg-Pro-Tyr-OH) showed an ED50 in the experiment with Mus musculus of 55 ug mouse-1. In addition, in experiment [1], the inhibitory constant (Ki) is greater than 10000 nM. For the compound `CC[C@H](C)[C@H](N)C(=O)N[C@@H](CC(C)C)C(=O)O` (H-Ile-Leu-OH), the ED50 with Mus musculus is on record as greater than 50 ug mouse-1. For the same compound, in experiment [1], the Ki is greater than 1000 nM.

In experiment [1], `CC[C@H](C)[C@H](NC(=O)[C@H](Cc1ccc(O)cc1)NC(=O)[C@@H]1CCCN1C(=O)[C@@H](N)CCCCN)C(=O)OCCC(C)C` (H-KPYI-X1) showed an inhibitory constant (Ki) greater than 10000 nM. `CC[C@H](C)[C@H](NC(=O)[C@H](Cc1ccc(O)cc1)NC(=O)[C@@H]1CCCN1)C(=O)N[C@@H](CC(C)C)C(=O)O` (H-PYIL-OH) came in with an ED50 with Mus musculus greater than 50 ug mouse-1. The same compound registered an inhibition constant (Ki) in experiment [1] greater than 1000 nM. For the compound `O=C(O)[C@H](Cc1ccc(O)cc1)NC(=O)[C@@H]1CCCN1` (H-Pro-Tyr-OH), the ED50 with Mus musculus was greater than 50 ug mouse-1. Besides, affinity in experiment [1] was put at a Ki of 13000 nM. Take `CC[C@H](C)[C@H](NC(=O)[C@H](Cc1ccc(O)cc1)NC(=O)[C@@H]1CCCN1C(=O)[C@@H](N)CCCN=C(N)N)C(=O)O` (H-RPYI-OH): in the experiment with Mus musculus, the ED50 entry was “>=50 ug mouse-1”. Besides, the Ki in experiment [1] was greater than 1000 nM. As for `CC[C@H](C)[C@H](NC(=O)[C@@H](N)Cc1ccc(O)cc1)C(=O)O` (H-Tyr-Ile-OH), the ED50 with Mus musculus was greater than 50 ug mouse-1. The compound further yielded an inhibition constant Ki in experiment [1] greater than 1000 nM. `CC[C@H](C)[C@H](NC(=O)[C@H](Cc1ccc(O)cc1)NC(=O)[C@@H]1CCCN1C(=O)CCCCCN)C(=O)N[C@@H](CC(C)C)C(=O)O` (H-[Ahx]PYIL-OH) came in with an ED50 with Mus musculus of 1.3 ug mouse-1. In experiment [1], the affinity, expressed as Ki, was 1300 nM.

Take `CCC[C@H](N)C(=O)N1CCC[C@H]1C(=O)N[C@@H](Cc1ccc(O)cc1)C(=O)N[C@H](C(=O)N[C@@H](CC(C)C)C(=O)O)[C@@H](C)CC` (H-[Nva]PYIL-OH): in the experiment with Mus musculus, the ED50 is greater than 50 ug mouse-1. Further, in experiment [1], the Ki was 3000 nM.

Compound `CC[C@H](C)[C@H](NC(=O)[C@H](Cc1ccc(O)cc1)NC(=O)[C@@H]1CCCN1C(=O)[C@@H](N)CCCN)C(=O)N[C@@H](CC(C)C)C(=O)O` (H-[Orn]PYIL-OH) displayed an ED50 in the experiment on Mus musculus of 20 ug mouse-1. In experiment [1], this compound returned an inhibition constant Ki of 520 nM. The compound H-APYIL-OH displayed an ED50 in the experiment on Mus musculus of less than 50 ug mouse-1. This compound also came in with an inhibitory constant (Ki) in experiment [1] of 5900 nM. Regarding H-KAYIL-OH, the ED50 in the experiment on Mus musculus is greater than 50 ug mouse-1. The compound also gave an inhibition constant Ki in experiment [1] greater than 10000 nM. In the experiment on Mus musculus, H-KPAIL-OH returned an ED50 greater than 50 ug mouse-1. For the same compound, the Ki in experiment [1] is greater than 10000 nM. As to H-KPYAL-OH, the ED50 in the experiment on Mus musculus is greater than 50 ug mouse-1. In addition, affinity in experiment [1] was put at a Ki of 4200 nM.

With H-KPYIA-OH, the ED50 in the experiment with Mus musculus is greater than 50 ug mouse-1. In experiment [1], the Ki is greater than 10000 nM. On the same counts, the results for H-KPYIL-OH are 8 ug mouse-1 and 690 nM.
